Results published in PubChem BioAssay (NCI).
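Exposure lasted 48 hours, with cells grown in 96-well plates and compounds tested at five concentrations. TGI denotes the concentration required for complete inhibition of growth.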

Tests used:
Assay in all cases: inhibition of tumour cell growth, NCI panel, 48 h
786-0 renal = tested on: 786-0 renal
A498 renal = tested on: A498 renal
A549 NSCLC = tested on: A549 NSCLC
ACHN renal = tested on: ACHN renal
CAKI-1 renal = tested on: CAKI-1 renal
CCRF-CEM leukemia = tested on: CCRF-CEM leukemia
COLO 205 colon = tested on: COLO 205 colon
DLD-1 colon = tested on: DLD-1 colon
DMS 114 small cell lung = tested on: DMS 114 small cell lung
DMS 273 small cell lung = tested on: DMS 273 small cell lung
EKVX NSCLC = tested on: EKVX NSCLC
HCC-2998 colon = tested on: HCC-2998 colon
HCT-116 colon = tested on: HCT-116 colon
HCT-15 colon = tested on: HCT-15 colon
HL-60(TB) leukemia = tested on: HL-60(TB) leukemia
HOP-18 NSCLC = tested on: HOP-18 NSCLC
HOP-62 NSCLC = tested on: HOP-62 NSCLC
HT29 colon = tested on: HT29 colon
IGROV1 ovarian = tested on: IGROV1 ovarian
K-562 leukemia = tested on: K-562 leukemia
KM12 colon = tested on: KM12 colon
KM20L2 colon = tested on: KM20L2 colon
LOX IMVI melanoma = tested on: LOX IMVI melanoma
LXFL 529 NSCLC = tested on: LXFL 529 NSCLC
M14 melanoma = tested on: M14 melanoma
M19-MEL melanoma = tested on: M19-MEL melanoma
MALME-3M melanoma = tested on: MALME-3M melanoma
MOLT-4 leukemia = tested on: MOLT-4 leukemia
NCI-H226 lung = tested on: NCI-H226 lung
NCI-H23 lung = tested on: NCI-H23 lung
NCI-H460 lung = tested on: NCI-H460 lung
NCI-H522 lung = tested on: NCI-H522 lung
OVCAR-3 ovarian = tested on: OVCAR-3 ovarian
OVCAR-4 ovarian = tested on: OVCAR-4 ovarian
OVCAR-5 ovarian = tested on: OVCAR-5 ovarian
OVCAR-8 ovarian = tested on: OVCAR-8 ovarian
RPMI-8226 leukemia = tested on: RPMI-8226 leukemia
SF-268 CNS = tested on: SF-268 CNS
SF-295 CNS = tested on: SF-295 CNS
SF-539 CNS = tested on: SF-539 CNS
SK-MEL-2 melanoma = tested on: SK-MEL-2 melanoma
SK-MEL-5 melanoma = tested on: SK-MEL-5 melanoma
SK-OV-3 ovarian = tested on: SK-OV-3 ovarian
SN12C renal = tested on: SN12C renal
SNB-19 CNS = tested on: SNB-19 CNS
SNB-75 CNS = tested on: SNB-75 CNS
SNB-78 CNS = tested on: SNB-78 CNS
SR leukemia = tested on: SR leukemia
SW-620 colon = tested on: SW-620 colon
TK-10 renal = tested on: TK-10 renal
U251 CNS = tested on: U251 CNS
UACC-257 melanoma = tested on: UACC-257 melanoma
UACC-62 melanoma = tested on: UACC-62 melanoma
UO-31 renal = tested on: UO-31 renal
XF 498 CNS = tested on: XF 498 CNS

## N=S(c1ccccc1)c1ccccc1[N+](=O)[O-] (stereo not given)
786-0 renal
  TGI: 30.3 µM
A498 renal
  TGI: > 100 µM
A549 NSCLC
  TGI: 32.1 µM
ACHN renal
  TGI: 31 µM
CAKI-1 renal
  TGI: 28.8 µM
CCRF-CEM leukemia
  TGI: 43.4 µM
COLO 205 colon
  TGI: 34 µM
DLD-1 colon
  TGI: 46 µM
DMS 114 small cell lung
  TGI: 32.7 µM
DMS 273 small cell lung
  TGI: 34.4 µM
EKVX NSCLC
  TGI: 38.5 µM
HCC-2998 colon
  TGI: 33.4 µM
HCT-116 colon
  TGI: 31.6 µM
HCT-15 colon
  TGI: 30.4 µM
HL-60(TB) leukemia
  TGI: 36.5 µM
HOP-18 NSCLC
  TGI: > 100 µM
HOP-62 NSCLC
  TGI: 52.6 µM
HT29 colon
  TGI: 38.7 µM
IGROV1 ovarian
  TGI: 32.9 µM
K-562 leukemia
  TGI: 45 µM
KM12 colon
  TGI: 32.7 µM
KM20L2 colon
  TGI: 41.5 µM
LOX IMVI melanoma
  TGI: 28.2 µM
LXFL 529 NSCLC
  TGI: 30.9 µM
M14 melanoma
  TGI: 27.7 µM
M19-MEL melanoma
  TGI: 29.7 µM
MALME-3M melanoma
  TGI: 30.1 µM
MOLT-4 leukemia
  TGI: 64.3 µM
NCI-H226 lung
  TGI: 25.4 µM
NCI-H23 lung
  TGI: 35.2 µM
NCI-H460 lung
  TGI: 51 µM
NCI-H522 lung
  TGI: 11.7 µM
OVCAR-3 ovarian
  TGI: 23.2 µM
OVCAR-4 ovarian
  TGI: 28.4 µM
OVCAR-5 ovarian
  TGI: 34.7 µM
OVCAR-8 ovarian
  TGI: 51.5 µM
RPMI-8226 leukemia
  TGI: 54.6 µM
SF-268 CNS
  TGI: 42.1 µM
SF-295 CNS
  TGI: 36.7 µM
SF-539 CNS
  TGI: 37.8 µM
SK-MEL-2 melanoma
  TGI: 67.7 µM
SK-MEL-5 melanoma
  TGI: 28.5 µM
SK-OV-3 ovarian
  TGI: 84.6 µM
SN12C renal
  TGI: 29.2 µM
SNB-19 CNS
  TGI: 35.2 µM
SNB-75 CNS
  TGI: 95.1 µM
SNB-78 CNS
  TGI: > 100 µM
SR leukemia
  TGI: 50.1 µM
SW-620 colon
  TGI: 31.4 µM
TK-10 renal
  TGI: 34.8 µM
U251 CNS
  TGI: 31.2 µM
UACC-257 melanoma
  TGI: 32.2 µM
UACC-62 melanoma
  TGI: 36.2 µM
UO-31 renal
  TGI: 29.5 µM
XF 498 CNS
  TGI: 19.6 µM
